These results are taken from US12358859B2, “Series of compounds for treatment of skin diseases and other conditions” (Unigen, Inc., priority 2018, dated 2025).

Holding throughout (type): cell-based
The subject of data set [1] is murine melanoma cells B16-F1. Put plainly: Melanin production by murine melanoma cells B16-F1. Conditions: Mus musculus, B16-F1, 1 nM α-MSH, 48 hours. As to the method: Selected compounds were then tested for the ability to suppress melanin production by the murine melanoma cells B16-F1 as detailed below.
Murine melanoma cells B16-F1 were purchased from the ATCC (Cat #CRL-6323). Cell Titer96 AqueousOne Solution was purchased from Promega (Cat #G3582). 0.2 μm pore size, low protein binding filters were purchased from PALL Life Sciences. (Cat #PN4454).
Alpha-MSH was purchased from the Sigma Aldrich (Cat #M4135-1MG). All tissue culture reagents were purchased from VWR (phenol-red-free DMEM, cat #12001-630, L-glutamine, cat #12001-698) and Fisher Scientific (Trypsin-EDTA, cat #25-200-056).
The B16-F1 cells were maintained in cell growth media (DMEM/High Glucose supplemented with glutamine, 10% fetal bovine serum, 50 units/ml penicillin, and 50 units/mL of streptomycin) at 37° C. in a humidified atmosphere of 95% air and 5% CO2.
(§1) All test compounds were initially dissolved in 100% DMSO at a concentration of 400 mM. Then, 6 μL of 400 mM test compounds were added to 1.2 mL of the cell growth media giving a final concentration of 2 mM for the test compound and concentration of 0.5% for DMSO. The compounds were centrifuged for 1 h at 20,000×g. Supernatants (1 mL) were collected and filtered through sterile 0.2 μm filters. The compounds were serially diluted in two-fold increments in the sterile cell growth media supplemented with 0.5% DMSO, thus keeping the concentration of DMSO constant for all samples. These serially diluted compounds were subsequently used as two-fold concentrated stock solutions in the melanin production and cell viability assays. Equal volumes of 2× compounds were mixed with media containing 2 nM α-MSH to give a final concentration of 1 nM α-MSH, 0.5% DMSO, and 1× concentration of test compounds.
B16-F1 cells were seeded into the wells of clear-bottom 24-well plates at 50,000 cells per well, in 0.5 mL of cell growth media. On the following day, 0.5 mL of freshly prepared test compounds containing α-MSH were added to the wells. The cells were maintained at 37° C. in a humidified atmosphere of 95% air and 5% CO2 for 48 hours. At the end of the incubation period, melanin-containing conditioned media was removed from the cells and transferred to another plate. To measure melanin content the light absorbance of conditioned media was taken at 492 nm using a TECAN Genios plate reader.
(§2) More than 90% percent of the melanin produced by cultured melanoma cells is found in extra-cellular media. Therefore, at the end of the experiment melanin-containing media was collected and relative amounts of melanin were determined by absorption at 492 nm. Viability of cells was determined by a commonly used colorimetric procedure that is based on conversion of the tetrazolium compounds to colored formazan products (using Promega's CellTiter96 AqueousOne assay). Dehydrogenase enzymes in metabolically active cells accomplish this conversion, and the amount of formazan product is directly proportional to the number of living cells in culture. Mean (n=2) absorption of wells containing no cells was subtracted as blanks. The results were computed as percent of wells that contained the cells but no test compounds.

Data set [2] deals with murine melanoma cells B16-F1. The data set can be described thus: Cell viability, tetrazolium reduction assay. As to the method:
as §1
Viability of cells was measured using standard tetrazolium reduction assay based on redox potential of live cells. Cells were seeded in a clear-bottom 96-well plate in RPMI 1640 media with Glutamax (Fisher Scientific, cat #61870036) at a density of 5,000 cells/well. Cells were treated with test compounds dissolved in 100 μL RPMI 1640 media and incubated for 48 hours at 37° C. in a humidified atmosphere of 95% air and 5% CO2.
After incubation, 20 μL of Aqueous One Solution were added to each well and the plate was returned to the incubator for 30 minutes. Conversion of tetrazolium was monitored by measuring absorbance of cell wells at 492 nm using a TECAN Genios plate reader.
as §2

Data set [3] deals with Propionibacterium acnes (ATCC11827). Put plainly: P-acne MIC/MBC test. Conditions: Cutibacterium acnes; for MIC: ATCC11827, 24 h, lowest level that inhibits growth, turbidity, 1 day, read-out: MIC; for MBC: ATCC11827, lowest concentration required to kill the bacterium, read-out: MBC. As for the experimental part: The anti-microbial activity of the tested compounds were evaluated using published methods (Modugno e. al. (1994) Antimicrobial agents and Chemotherapy 38: 2362-2368; […] et. al. (1973) Antimicrobial agents and Chemotherapy 3: 40-48. Propionibacterium acnes (ATCC11827) was cultured for 20 hours at 37° C. in Reinforced Clostridal medium. The test article and positive control were dissolved in 1% DMSO with an incubation volume of 1 mL. The time of assessment was 1 day. Measurement of turbidity was used as the method of quantification. The compounds were tested in duplicate at concentrations of 250 ug/mL, 125 ug/mL, 62 ug/mL, 31 ug/mL, 16 ug/mL, 8 ug/mL, 4 ug/mL, 2 ug/mL relative to positive control ampicillin at 0.1 ug/mL.

Data set [4] has as its system reconstructed skin (keratinocytes and melanocytes). Put plainly: Reconstructed human skin model (Melanoderm). The conditions noted are these: for toxicity on reconstructed skin: at 0.05%. As for the experimental part: The skin whitening effects of test compounds were studied using a reconstructed skin model, Melanoderm™ provided by MatTek Corp. (Ashland, Mass.) according to the manufacturer's specifications. Briefly, normal human epidermal keratinocytes and normal human melanocytes derived from dark skin donors were co-cultured on a surface of collagen-coated membrane to form multi-layered, highly differentiated skin tissue (MEL-300-B). The tissues were maintained in the CO2, incubator at 37° C. The apical surfaces of the reconstructed skin (9 mm in diameter) were exposed to air whereas the bottom surfaces remained in contact with 5 mL of maintenance medium, containing skin differentiating factors (EPI-100-NNM-113). Test compounds were formulated in 80% propylene glycol as follows: 10 mg of each test compound was dissolved in DMSO and diluted with 80% propylene glycol (1,2-propanediol, Sigma-Aldrich) to stock concentrations. The compounds were then sterilized by passing through 0.2 um filter and diluted in sterile water/propylene glycol to final test concentrations in 0.5% DMSO, 80% propylene glycol. In addition, the following controls were used: 80% propylene glycol with 0.5% DMSO, and 1% kojic acid in 80% propylene glycol.
‘Test compounds were applied to the apical surface of the tissues as follows: 25 μl of each test compound, 25 μl of 80% propylene glycol (vehicle control), and 25 μl of 1% kojic acid (positive control). The samples were reapplied every other day for 14 days. All the samples were tested in duplicate. At the end of the experiment microscopic images were taken.
The potential skin-whitening properties of test compounds were explored in a reconstructed skin model. The model consists of normal, human-derived epidermal keratinocytes and melanocytes, which have been co-cultured to form a multilayered, highly differentiated human epidermis. In this study the melanocytes were obtained from a highly pigmented donor.
Different concentrations of test compounds, 80% propylene glycol (the vehicle control), or 1% kojic acid (positive control) were repeatedly applied topically on the surface of the reconstructed skin for 15 days. […] Photographs of skin specimen taken after 15 days of the experiment show significant dose-dependent whitening effects on melanocytes, which appear on photographs as dark dendritic cells.

Setting [5] is: Tables 1-3, read-out: MELANIN PRODUCTION
Setting [6] is: FIGS. 2-8, read-out: IC50, inhibition in the production of melanin.

pIC50: −log10 of the molar value. Read-outs that look alike come from different tables or passages of the source.

On to `CC(C)=CCCC(C)=Cc1cccc(O)c1` (mixture of isomers) [Compound 2, (E/Z)-3-(2,6-dimethylhepta-1,5-dienyl)phenol], for which the pIC50 in data set [1] (setting [5]) is 4.09. Also, the “CELL VIABILITY” value in data set [2] (mouse, 48 h) was 66 µM.
With `CC(C)=CCC/C(C)=C/c1ccc(O)cc1O` [Compound 3, (E/Z)-4-(2,6-dimethylhepta-1,5-dienyl)benzene-1,3-diol], the pIC50 in data set [1] (setting [5]) was 3.79. Besides, the “CELL VIABILITY” value in data set [2] (mouse, 48 h) came out at 172 µM. Further, in data set [3], the MIC is under 3.9 µg/mL and the MBC was under 3.9 µg/mL.
`CC(C)=CCCC(C)/C=C/c1ccc2cc(O)ccc2c1` (stereo not drawn) [Compound 8, (E)-6-(3,7-Dimethylocta-1,6-dienyl) naphthalene-2-ol]: in data set [1] (setting [6]), the pIC50 is 4.66. The pIC50 in data set [1] (setting [5]) was 4.66. In data set [2] (mouse, 48 h), the “CELL VIABILITY” value amounted to 68 µM and the “LD50, cell viability” value came to 68 µM. In addition, in data set [4], the “toxicity on reconstructed skin” value is given as “some toxicity”. Further, in data set [3], the MIC is under 3.9 µg/mL and the MBC is under 3.9 µg/mL.
As for `CC(C)=CCCC(C)/C=C/c1cccnc1` (stereo not drawn) [Compound 12, (E)-3-(3,7-dimethylocta-1,6-dienyl) pyridine], the pIC50 in data set [1] (setting [6]) and in data set [1] (setting [5]) was 4.13 in each case. Besides, the “CELL VIABILITY” value in data set [2] (48 hours, Tables 1-3) worked out at 385 µM. The “LD50, cell viability” value in data set [2] (mouse, 48 h) is 385 µM. Besides, the “toxicity on reconstructed skin” value in data set [4] is “some toxicity”. Moreover, the “whitening effects on melanocytes” value in data set [4] (topical, photographs after 14 days) is “significant whitening effects”. In addition, in data set [3], the MIC was under 3.9 µg/mL. Further, the minimal bactericidal concentration (MBC) in data set [3] is under 3.9 µg/mL.
For `CC(C)=CCCC(C)/C=C/c1ccccn1` (stereo not drawn) [Compound 13, (E)-2-(3,7-dimethylocta-1,6-dienyl) pyridine], in data set [1] (setting [5]), the pIC50 was 3.83. Further, the “CELL VIABILITY” value in data set [2] (mouse, 48 h) was determined as 650 µM.
On the same counts, the results for `COc1ccc(/C=C/C(C)CCC=C(C)C)cn1` (stereo not drawn) [Compound 14, (E)-5-(3,7-dimethylocta-1,6-dienyl)-2-methoxypyridine] are 3.83 and 369 µM.
For the compound `CC(C)=CCCC(C)C/C=C/c1cc(O)cc(O)c1` (stereo not drawn) [Compound 16, (E)-5-(4,8-dimethylnona-1,7-dienyl) benzene-1,3-diol], in data set [1] (setting [5]), the pIC50 was 3.79. The “CELL VIABILITY” value in data set [2] (mouse, 48 h) worked out at 172 µM. Further, in data set [3], the MIC was under 3.9 µg/mL and the minimal bactericidal concentration (MBC) is under 3.9 µg/mL.
Turning to `CC(C)=CCCC(C)C/C=C/c1cc(OCC(=O)O)cc(OCC(=O)O)c1` (stereo not drawn) [Compound 17, (E)-2,2′-(5-(4,8-dimethylnona-1,7-dienyl)-1,3-phenylene)bis(oxy)diacetic acid], the pIC50 in data set [1] (setting [5]) was 4.14. In data set [2] (mouse, 48 h), the “CELL VIABILITY” value was 127 µM. For the same compound, in data set [3], the minimum inhibitory concentration (MIC) was under 3.9 µg/mL and the MBC was under 3.9 µg/mL.
